Measurements as given in ChEMBL document CHEMBL5370655.

Experiments:
[1] = biological target: T1, Epidermal growth factor receptor (Homo sapiens, UniProt P00533, C797S/L858R/T790M)
[2] = Induction of apoptosis in human H1975-TM cells assessed as apoptotic cells at 500 nM measured after 24 by Annexin V-FITC and propidium iodide staining based flow cytometric analysis (reference value: 7.08 %); format: functional; conditions: time 24 hrs
NCI-H1975 = experiment: Antiproliferative activity against human NCI-H1975 cells assessed as inhibition of cell growth measured after 72 hrs by CCK8 assay; format: functional, cell-based; conditions: NCI-H1975, 72 h
PC-9 [3] = experiment: Antiproliferative activity against human PC-9 cells assessed as inhibition of cell growth measured after 72 hrs by CCK8 assay; format: functional, cell-based; conditions: PC-9, 72 h
[4] = Induction of cell cycle arrest in human H1975-TM cells assessed as accumulation at S phase at 500 nM measured after 24 hrs by RNase A/propidium iodide staining based flow cytometric analysis (reference value: 18.1 %); format: functional
[5] = Antitumor activity against human H1975-TM cells xenografted in BALB/c mouse assessed as tumor growth inhibition at 25 mg/kg, po measured after 25 days; format: functional; conditions: time 25 day
A-431 = experiment: Antiproliferative activity against human A-431 cells assessed as inhibition of cell growth measured after 72 hrs by CCK8 assay; format: functional, cell-based; conditions: A-431, 72 h
PC-9 [6] = format: functional, cell-based; conditions: Homo sapiens, PC-9, 72 h
[7] = Induction of cell cycle arrest in human H1975-TM cells assessed as accumulation at G0/G1 phase at 500 nM measured after 24 hrs by RNase A/propidium iodide staining based flow cytometric analysis (reference value: 64.3 %); format: functional
[8] = Induction of cell cycle arrest in human H1975-TM cells assessed as accumulation at G2/M phase at 500 nM measured after 24 hrs by RNase A/propidium iodide staining based flow cytometric analysis (reference value: 17.6 %); format: functional
[9] = biological target: Epidermal growth factor receptor (Homo sapiens, UniProt P00533, L858R/T790M); experiment: Inhibition of EGFR L858R/T790M double mutant (unknown origin) using polyE4Y1 as substrate incubated for 5 mins with compound followed by substrate addition measured after 60 mins in presence of ATP by ADP-Glo reagent based assay
[10] = biological target: T1, Epidermal growth factor receptor; remark: listed apart in the source
[11] = biological target: Epidermal growth factor receptor (Homo sapiens, UniProt P00533, L858R)
[12] = biological target: Epidermal growth factor receptor (Homo sapiens, UniProt P00533, C797S/EX19DEL/T790M)
[13] = biological target: Epidermal growth factor receptor (Homo sapiens, UniProt P00533)
Epidermal growth factor receptor (Homo sapiens, UniProt P00533), sequence (P00533 whole entry): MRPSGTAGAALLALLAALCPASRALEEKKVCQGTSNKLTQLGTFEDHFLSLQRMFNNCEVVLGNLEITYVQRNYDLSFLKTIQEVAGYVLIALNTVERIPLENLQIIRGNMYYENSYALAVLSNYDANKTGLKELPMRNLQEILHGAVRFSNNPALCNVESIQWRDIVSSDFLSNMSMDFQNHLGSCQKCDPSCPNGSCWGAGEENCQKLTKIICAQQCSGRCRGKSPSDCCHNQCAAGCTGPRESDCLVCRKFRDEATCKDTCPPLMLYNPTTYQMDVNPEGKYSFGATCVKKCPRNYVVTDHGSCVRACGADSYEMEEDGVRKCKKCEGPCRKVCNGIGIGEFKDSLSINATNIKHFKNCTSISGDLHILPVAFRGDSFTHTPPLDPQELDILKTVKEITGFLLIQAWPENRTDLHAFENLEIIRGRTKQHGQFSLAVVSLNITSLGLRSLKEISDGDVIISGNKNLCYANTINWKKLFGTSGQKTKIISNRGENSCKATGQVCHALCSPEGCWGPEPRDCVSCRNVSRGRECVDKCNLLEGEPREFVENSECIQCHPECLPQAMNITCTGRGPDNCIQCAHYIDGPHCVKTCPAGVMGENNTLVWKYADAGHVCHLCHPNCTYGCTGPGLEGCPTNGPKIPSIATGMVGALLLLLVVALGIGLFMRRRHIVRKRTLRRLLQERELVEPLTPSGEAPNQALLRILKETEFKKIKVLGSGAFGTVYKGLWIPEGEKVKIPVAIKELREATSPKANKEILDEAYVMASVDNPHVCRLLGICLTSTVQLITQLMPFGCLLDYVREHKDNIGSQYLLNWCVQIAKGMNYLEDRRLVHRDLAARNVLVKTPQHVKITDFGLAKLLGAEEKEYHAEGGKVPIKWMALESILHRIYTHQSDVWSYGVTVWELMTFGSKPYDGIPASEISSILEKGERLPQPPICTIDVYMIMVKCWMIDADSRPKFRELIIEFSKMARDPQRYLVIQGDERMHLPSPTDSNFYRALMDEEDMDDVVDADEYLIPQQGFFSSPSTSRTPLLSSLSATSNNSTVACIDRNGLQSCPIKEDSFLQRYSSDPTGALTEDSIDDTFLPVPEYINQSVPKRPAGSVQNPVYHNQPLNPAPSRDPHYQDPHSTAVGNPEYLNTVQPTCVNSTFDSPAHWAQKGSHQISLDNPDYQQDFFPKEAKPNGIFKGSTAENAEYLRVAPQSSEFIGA
Description: Inhibition of wild-type EGFR (unknown origin) using polyE4Y1 as substrate incubated for 5 mins with compound followed by substrate addition measured after 60 mins in presence of ATP by ADP-Glo reagent based assay

Epidermal growth factor receptor (Homo sapiens, UniProt P00533, L858R), sequence (P00533 25-1210 L858R limits assumed): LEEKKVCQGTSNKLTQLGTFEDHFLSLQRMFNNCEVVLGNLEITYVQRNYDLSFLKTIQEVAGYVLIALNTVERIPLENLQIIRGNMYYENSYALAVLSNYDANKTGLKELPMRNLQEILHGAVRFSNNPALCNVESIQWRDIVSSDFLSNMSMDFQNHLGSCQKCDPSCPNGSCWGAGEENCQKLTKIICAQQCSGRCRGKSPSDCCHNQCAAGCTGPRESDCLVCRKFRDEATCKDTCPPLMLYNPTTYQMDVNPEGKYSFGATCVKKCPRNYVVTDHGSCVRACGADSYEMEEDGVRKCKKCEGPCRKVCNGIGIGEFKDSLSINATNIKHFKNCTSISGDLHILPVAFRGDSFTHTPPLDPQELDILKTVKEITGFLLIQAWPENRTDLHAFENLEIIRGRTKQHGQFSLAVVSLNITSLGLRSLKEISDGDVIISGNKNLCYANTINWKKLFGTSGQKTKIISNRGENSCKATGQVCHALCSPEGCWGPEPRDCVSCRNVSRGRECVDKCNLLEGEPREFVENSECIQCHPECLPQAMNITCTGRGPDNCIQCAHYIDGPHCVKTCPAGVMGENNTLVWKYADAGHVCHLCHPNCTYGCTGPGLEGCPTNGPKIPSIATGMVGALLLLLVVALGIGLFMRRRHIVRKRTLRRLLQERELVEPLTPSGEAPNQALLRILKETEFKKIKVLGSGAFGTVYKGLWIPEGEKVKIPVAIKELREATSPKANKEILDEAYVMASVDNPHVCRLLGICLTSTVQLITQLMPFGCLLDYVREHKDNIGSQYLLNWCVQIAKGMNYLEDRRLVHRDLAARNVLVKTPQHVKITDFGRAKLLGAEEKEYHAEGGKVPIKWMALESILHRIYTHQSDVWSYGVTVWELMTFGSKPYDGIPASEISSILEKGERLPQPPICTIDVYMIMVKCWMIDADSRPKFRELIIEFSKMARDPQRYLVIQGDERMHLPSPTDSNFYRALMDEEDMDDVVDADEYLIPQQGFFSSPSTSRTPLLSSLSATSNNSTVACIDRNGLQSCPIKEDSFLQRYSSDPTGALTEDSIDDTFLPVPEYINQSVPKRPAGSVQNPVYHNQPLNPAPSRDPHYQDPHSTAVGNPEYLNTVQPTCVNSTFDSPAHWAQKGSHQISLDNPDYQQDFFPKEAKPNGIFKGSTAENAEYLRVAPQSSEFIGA
Epidermal growth factor receptor (Homo sapiens, UniProt P00533, L858R/T790M), sequence (P00533 25-1210 T790M/L858R limits assumed): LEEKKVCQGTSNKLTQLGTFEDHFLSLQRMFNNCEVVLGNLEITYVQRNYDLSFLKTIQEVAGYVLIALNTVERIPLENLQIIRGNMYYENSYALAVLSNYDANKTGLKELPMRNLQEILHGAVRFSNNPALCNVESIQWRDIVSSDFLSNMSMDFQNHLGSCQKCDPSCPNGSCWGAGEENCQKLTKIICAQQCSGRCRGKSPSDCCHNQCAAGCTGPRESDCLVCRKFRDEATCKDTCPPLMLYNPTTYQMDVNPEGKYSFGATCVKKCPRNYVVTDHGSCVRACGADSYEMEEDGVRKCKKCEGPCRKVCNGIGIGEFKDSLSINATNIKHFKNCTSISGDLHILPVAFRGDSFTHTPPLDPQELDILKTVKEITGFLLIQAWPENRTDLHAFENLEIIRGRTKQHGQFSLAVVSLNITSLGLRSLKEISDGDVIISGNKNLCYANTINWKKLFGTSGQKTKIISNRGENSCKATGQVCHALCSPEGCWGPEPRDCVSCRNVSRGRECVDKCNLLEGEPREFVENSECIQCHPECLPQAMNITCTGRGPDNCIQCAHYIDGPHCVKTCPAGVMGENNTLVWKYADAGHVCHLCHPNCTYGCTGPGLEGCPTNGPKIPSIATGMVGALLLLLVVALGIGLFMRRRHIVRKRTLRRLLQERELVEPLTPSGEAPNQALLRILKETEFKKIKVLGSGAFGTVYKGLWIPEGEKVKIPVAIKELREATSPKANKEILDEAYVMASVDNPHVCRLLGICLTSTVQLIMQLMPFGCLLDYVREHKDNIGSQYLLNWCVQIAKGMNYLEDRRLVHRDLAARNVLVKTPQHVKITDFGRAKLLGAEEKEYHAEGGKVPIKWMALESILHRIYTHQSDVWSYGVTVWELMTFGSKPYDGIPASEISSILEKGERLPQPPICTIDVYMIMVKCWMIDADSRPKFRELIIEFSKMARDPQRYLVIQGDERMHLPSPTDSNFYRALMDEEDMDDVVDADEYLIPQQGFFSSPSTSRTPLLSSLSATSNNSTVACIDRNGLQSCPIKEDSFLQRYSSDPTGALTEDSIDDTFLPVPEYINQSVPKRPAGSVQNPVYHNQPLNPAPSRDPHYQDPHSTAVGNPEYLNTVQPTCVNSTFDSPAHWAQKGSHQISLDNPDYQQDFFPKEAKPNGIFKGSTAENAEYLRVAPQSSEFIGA
Epidermal growth factor receptor (Homo sapiens, UniProt P00533, C797S/EX19DEL/T790M), sequence (P00533 whole entry, looked up, stated change not applied): as the sequence (P00533 whole entry) above

IC50 [1] | SMILES | other results
3.7 nM | CCS(=O)(=O)Nc1nc(-c2ccc(F)cc2)c(-c2ccnc(Nc3ccc(N4CCN(C(C)C)CC4)cc3)n2)s1 | –
28 nM | COc1cc(N2CCC(N3CCN(C)CC3)CC2)c(C)cc1Nc1nccc(-n2ccnc2-c2ccc(F)cc2)n1 | –
3.4 nM | CC(C)S(=O)(=O)Nc1nc(-c2ccc(F)cc2)c(-c2ccnc(Nc3ccc4c(ccn4CCN(C)C)c3)n2)s1 | –
– | COc1cc(N2CCC(N3CCN(C)CC3)CC2)ccc1Nc1ncc(Cl)c(Nc2ccccc2P(C)(C)=O)n1 [BRIGATINIB] | Activity [2]: 11.58%; IC50 (NCI-H1975): 320 nM; IC50 (PC-9 [3]): 87 nM; Activity [4]: 10.5%; TGI [5]: 59.8%; IC50 (A-431): 510 nM; IC50 (PC-9 [6]): 390 nM; Activity [7]: 78.4%; Activity [8]: 11.1%
11 nM | Cc1nc(-c2ccc(F)cc2)c(-c2ccnc(Nc3ccc4c(ccn4CCN(C)C)c3)n2)s1 | –
90 nM | CN(C)CCn1ccc2cc(Nc3nccc(-n4ccnc4-c4cccc(F)c4)n3)ccc21 | –
49 nM | CCS(=O)(=O)N1CCC(c2nc(-c3ccc(F)cc3)c(-c3ccnc(Nc4ccc(N5CCN(C(C)C)CC5)cc4)n3)s2)CC1 | –
36 nM | CCS(=O)(=O)N1CCC(c2nc(-c3ccc(F)cc3)c(-c3ccnc(Nc4ccc(N5CCN(C)CC5)c(C)c4)n3)s2)CC1 | IC50 [9]: 17 nM; IC50 (NCI-H1975): 100 nM; IC50 (PC-9 [3]): 35 nM; IC50 (A-431): 610 nM; IC50 [10]: 289 nM; IC50 (PC-9 [6]): 40 nM; IC50 [11]: 5.8 nM; IC50 [12]: 70 nM; IC50 [13]: 67 nM
37 nM | CCS(=O)(=O)Nc1nc(-c2ccc(F)cc2)c(-c2ccnc(Nc3ccc(N4CCOCC4)cc3)n2)s1 | –
4.3 nM | CCCCS(=O)(=O)Nc1nc(-c2ccc(F)cc2)c(-c2ccnc(Nc3ccc4c(ccn4CCN(C)C)c3)n2)s1 | –
19 nM | CNc1nc(-c2ccc(F)cc2)c(-c2ccnc(Nc3ccc4c(ccn4CCN(C)C)c3)n2)s1 | –
63 nM | CN1CCN(c2ccc(Nc3nccc(-n4ccnc4-c4ccc(F)cc4)n3)cc2)CC1 | –
1.8 nM | CCS(=O)(=O)Nc1nc(-c2ccc(F)cc2)c(-c2ccnc(Nc3ccc(N4CCN(C)CC4)cc3)n2)s1 | –
2.5 nM | CN(C)CCn1ccc2cc(Nc3nccc(-c4sc(NS(C)(=O)=O)nc4-c4ccc(F)cc4)n3)ccc21 | –
3.6 nM | CCS(=O)(=O)Nc1nc(-c2ccc(F)cc2)c(-c2ccnc(Nc3ccc(N4CCN(C)CC4)c(C)c3)n2)s1 | –
4.1 nM | CCS(=O)(=O)Nc1nc(-c2ccc(F)cc2)c(-c2ccnc(Nc3ccc(N4CCOCC4)c(F)c3)n2)s1 | –
71 nM | CCS(=O)(=O)N1CCC(c2nc(-c3ccc(F)cc3)c(-c3ccnc(Nc4ccc5c(ccn5CCN5CCOCC5)c4)n3)s2)CC1 | –
26 nM | CN(C)CCn1ccc2cc(Nc3nccc(-c4sc(N5CCOCC5)nc4-c4ccc(F)cc4)n3)ccc21 | –
20 nM | CN(C)CCn1ccc2cc(Nc3nccc(-c4sc(NS(=O)(=O)C5CCCCC5)nc4-c4ccc(F)cc4)n3)ccc21 | –
70.1 nM | CCS(=O)(=O)Nc1nc(-c2ccc(F)cc2)c(-c2ccnc(Nc3cc(-c4cnn(C)c4)c(N4CCOCC4)cc3OC)n2)s1 | –
71 nM | CCS(=O)(=O)N1CCC(c2nc(-c3ccc(F)cc3)c(-c3ccnc(Nc4ccc(N5CCN(C)CC5)cc4OC)n3)s2)CC1 | –
58 nM | CCS(=O)(=O)N1CCC(c2nc(-c3ccc(F)cc3)c(-c3ccnc(Nc4ccc(N5CCOCC5)cc4)n3)s2)CC1 | –

IC50 [1] | SMILES | other results
77 nM | CCS(=O)(=O)N1CCC(c2nc(-c3ccc(F)cc3)c(-c3ccnc(Nc4ccc(N5CCOCC5)c(F)c4)n3)s2)CC1 | –
86 nM | CN(C)CCn1ccc2cc(Nc3nccc(-n4ccnc4-c4ccc(Cl)cc4)n3)ccc21 | –
15 nM | CCS(=O)(=O)N1CCC(c2nc(-c3ccc(F)cc3)c(-c3ccnc(Nc4ccc(C5CCN(C)CC5)cc4)n3)s2)CC1 | –
127 nM | COc1cc(N2CCN(C)CC2)ccc1Nc1nccc(-n2ccnc2-c2ccc(F)cc2)n1 | –
> 1000 nM | CN(C)CCn1ccc2cc(Nc3nccc(-n4ccnc4-c4ccc(C(F)(F)F)cc4)n3)ccc21 | –
2.5 nM | CCS(=O)(=O)Nc1nc(-c2ccc(F)cc2)c(-c2ccnc(Nc3ccc(N4CCN(C)CC4)cc3OC)n2)s1 | –
6.3 nM | CCS(=O)(=O)Nc1nc(-c2ccc(F)cc2)c(-c2ccnc(Nc3ccc4c(ccn4CCN4CCOCC4)c3)n2)s1 | –
34 nM | CCN(CC)CCn1ccc2cc(Nc3nccc(-c4sc(C5CCN(S(=O)(=O)CC)CC5)nc4-c4ccc(F)cc4)n3)ccc21 | –
26 nM | CCN1CCN(c2ccc(Nc3nccc(-c4sc(C5CCN(S(=O)(=O)CC)CC5)nc4-c4ccc(F)cc4)n3)cc2)CC1 | –
0.9 nM | CCS(=O)(=O)Nc1nc(-c2ccc(F)cc2)c(-c2ccnc(Nc3ccc4c(ccn4CCN(C)C)c3)n2)s1 | –
17 nM | CN(C)CCn1ccc2cc(Nc3nccc(-n4ccnc4-c4ccc(F)cc4)n3)ccc21 | –
18 nM | CCS(=O)(=O)N1CCC(c2nc(-c3ccc(F)cc3)c(-c3ccnc(Nc4ccc(N5CCN(C)CC5)cc4)n3)s2)CC1 | IC50 [9]: 8 nM; IC50 (NCI-H1975): 190 nM; IC50 (PC-9 [3]): 6 nM; IC50 (A-431): 1200 nM; IC50 [10]: 166 nM; IC50 (PC-9 [6]): 80 nM; IC50 [11]: 2.4 nM; IC50 [12]: 30 nM; IC50 [13]: 52 nM
3.2 nM | CC(=O)Nc1nc(-c2ccc(F)cc2)c(-c2ccnc(Nc3ccc4c(ccn4CCN(C)C)c3)n2)s1 | IC50 [9]: 4.9 nM; IC50 (NCI-H1975): 340 nM; IC50 (PC-9 [3]): 20 nM; IC50 (A-431): 450 nM; IC50 [10]: 159 nM; IC50 (PC-9 [6]): 8 nM; IC50 [11]: 2.1 nM; IC50 [12]: 14 nM; IC50 [13]: 66 nM
2.2 nM | CCN1CCN(c2ccc(Nc3nccc(-c4sc(NS(=O)(=O)CC)nc4-c4ccc(F)cc4)n3)cc2)CC1 | –
15 nM | CN(C)CCn1ccc2cc(Nc3nccc(-c4sc(NS(=O)(=O)c5ccc(F)cc5)nc4-c4ccc(F)cc4)n3)ccc21 | –
409 nM | CN(C)CCn1ccc2cc(Nc3nccc(-n4ccc(-c5ccc(F)cc5)n4)n3)ccc21 | –
289 nM | COc1ccc(-c2nccn2-c2ccnc(Nc3ccc4c(ccn4CCN(C)C)c3)n2)cc1 | –
2.1 nM | CN(C)CCn1ccc2cc(Nc3nccc(-c4sc(N)nc4-c4ccc(F)cc4)n3)ccc21 | –
– | C=CC(=O)Nc1cc(Nc2nccc(-c3cn(C)c4ccccc34)n2)c(OC)cc1N(C)CCN(C)C [OSIMERTINIB] | IC50 (NCI-H1975): […]; IC50 (PC-9 [3]): 5 nM; IC50 (A-431): […]; IC50 (PC-9 [6]): 2200 nM
2.1 nM | CCS(=O)(=O)Nc1nc(-c2ccc(F)cc2)c(-c2ccnc(Nc3ccc(C4CCN(C)CC4)cc3)n2)s1 | –
20 nM | CC(C)c1nc(-c2ccc(F)cc2)c(-c2ccnc(Nc3ccc4c(ccn4CCN(C)C)c3)n2)s1 | –
71 nM | CCS(=O)(=O)N1CCC(c2nc(-c3ccc(F)cc3)c(-c3ccnc(Nc4ccc(N5CCOCC5)cc4OC)n3)s2)CC1 | –
